Assay results reported in patent US20110263564A1, “PYRIDINE, BICYCLIC PYRIDINE AND RELATED ANALOGS AS SIRTUIN MODULATORS” (Sirtris Pharmaceuticals, Inc., priority 2008, published 2011).

Target: T1, SIRT1 (Homo sapiens, UniProt Q96EB6)
T1 sequence (Q96EB6 1-747): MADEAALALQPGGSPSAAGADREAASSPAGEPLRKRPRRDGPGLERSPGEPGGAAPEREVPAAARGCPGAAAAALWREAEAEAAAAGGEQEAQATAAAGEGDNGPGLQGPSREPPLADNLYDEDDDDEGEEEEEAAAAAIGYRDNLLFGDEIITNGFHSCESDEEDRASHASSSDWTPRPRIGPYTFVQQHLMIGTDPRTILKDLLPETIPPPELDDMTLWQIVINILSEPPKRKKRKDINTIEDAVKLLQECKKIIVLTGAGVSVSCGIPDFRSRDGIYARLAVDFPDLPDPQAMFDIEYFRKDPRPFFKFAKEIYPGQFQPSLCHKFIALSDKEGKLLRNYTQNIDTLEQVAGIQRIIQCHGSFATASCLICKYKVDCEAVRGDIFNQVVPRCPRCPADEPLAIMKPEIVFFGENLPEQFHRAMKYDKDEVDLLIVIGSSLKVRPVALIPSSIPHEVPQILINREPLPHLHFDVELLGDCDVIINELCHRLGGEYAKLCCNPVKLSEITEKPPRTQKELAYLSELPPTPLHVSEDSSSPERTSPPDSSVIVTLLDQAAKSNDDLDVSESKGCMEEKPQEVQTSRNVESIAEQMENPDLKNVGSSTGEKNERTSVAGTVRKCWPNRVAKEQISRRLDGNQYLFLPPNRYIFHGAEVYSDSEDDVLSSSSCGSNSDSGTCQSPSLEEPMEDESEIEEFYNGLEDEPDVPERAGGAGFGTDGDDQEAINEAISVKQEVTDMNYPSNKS
Assay: Mass spectrometry based assay of SIRT1 activity (deacetylation of a p53-based acetylated peptide)
Assay type: biochemical
Conditions: 10 nM SIRT1, 0.5 μM peptide substrate, 120 μM βNAD+, 25 minutes at 25° C.; for Emax: read-out: % FOLD ACT. (percent maximum fold activation)
From the text: A mass spectrometry based assay was used to identify modulators of SIRT1 activity. The mass spectrometry based assay utilizes a peptide having 20 amino acid residues as follows: Ac-EE-K(biotin)-GQSTSSHSK(Ac)NleSTEG-K(5TMR)-EE-NH2 (SEQ ID NO: 1) wherein K(Ac) is an acetylated lysine residue and Nle is a norleucine. The peptide is labeled with the fluorophore 5TMR (excitation 540 nm/emission 580 nm) at the C-terminus. The sequence of the peptide substrate is based on p53 with several modifications. In addition, the methionine residue naturally present in the sequence was replaced with the norleucine because the methionine may be susceptible to oxidation during synthesis and purification.
The mass spectrometry assay is conducted as follows: 0.5 μM peptide substrate and 120 μM βNAD^+ is incubated with 10 nM SIRT1 for 25 minutes at 25° C. in a reaction buffer (50 mM Tris-acetate pH 8, 137 mM NaCl, 2.7 mM KCl, 1 mM MgCl2, 5 mM DTT, 0.05% BSA). Test compounds may be added to the reaction as described above. […] After the 25 minute incubation with SIRT1, 10 μL of 10% formic acid is added to stop the reaction. Reactions are sealed and frozen for later mass spec analysis. Determination of the mass of the substrate peptide allows for precise determination of the degree of acetylation (i.e. starting material) as compared to deacetylated peptide (product).
A control for inhibition of sirtuin activity is conducted by adding 1 μL of 500 mM nicotinamide as a negative control at the start of the reaction (e.g., permits determination of maximum sirtuin inhibition). A control for activation of sirtuin activity is conducted using 10 nM of sirtuin protein, with 1 μL of DMSO in place of compound, to determine the amount of deacetylation of the substrate at a given timepoint within the linear range of the assay. This timepoint is the same as that used for test compounds and, within the linear range, the endpoint represents a change in velocity.
For the above assay, SIRT1 protein was expressed and purified as follows. […] The protein was expressed by induction with 1 mM IPTG as an N-terminal His-tag fusion protein at 18° C. overnight and harvested at 30,000×g. Cells were lysed with lysozyme in lysis buffer (50 mM Tris-HCl, 2 mM Tris[2-carboxyethyl]phosphine (TCEP), 10 μM ZnCl2, 200 mM NaCl) and further treated with sonication for 10 min for complete lysis. The protein was purified over a Ni-NTA column (Amersham) and fractions containing pure protein were pooled, concentrated and run over a sizing column (Sephadex S200 26/60 global). The peak containing soluble protein was collected and run on an Ion-exchange column (MonoQ). Gradient elution (200 mM-500 mM NaCl) yielded pure protein. This protein was concentrated and dialyzed against dialysis buffer (20 mM Tris-HCl, 2 mM TCEP) overnight. The protein was aliquoted and frozen at −80° C. until further use.
Sirtuin modulating compounds that activated SIRT1 were identified using the assay described above and are shown below in Table 1 for compounds of Formula (III)). The EC1.5 values represent the concentration of test compounds that result in 150% activation of SIRT1. The EC1.5 values for the activating compounds in Table 1 are represented by A (EC1.5<10.0 μM), B (EC1.5 10-25 μM), C (EC1.5>25 μM). The percent maximum fold activation is represented by A (Fold activation>200%) or B (Fold Activation<200%); “NT” means not tested; “ND” mean not determinable.

Cc1cncc(-c2ccc3c(n2)C(NC(=O)c2cnccn2)CCC3)c1 (stereo not drawn) [Compound 200, N-(2-(5-methylpyridin-3-yl)-5,6,7,8-tetrahydroquinolin-8-yl)pyrazine-2-carboxamide]
EC1.5 (concentration of test compound that results in 150% activation of SIRT1): C (EC1.5>25 μM)

CC(C)c1cccc(-c2cccc(C(C)NC(=O)c3cscn3)n2)c1 (stereo not drawn) [Compound 201]
EC1.5 (concentration of test compound that results in 150% activation of SIRT1): C (EC1.5>25 μM) | Emax: < 200%

CC(C)c1cccc(-c2cccc(C(C)NC(=O)c3cnccn3)n2)c1 (stereo not drawn) [Compound 202]
EC1.5 (concentration of test compound that results in 150% activation of SIRT1): C (EC1.5>25 μM) | Emax: < 200%

CC(NC(=O)c1cscn1)c1cccc(-c2cccc(C(F)(F)F)c2)n1 (stereo not drawn) [Compound 203]
EC1.5 (concentration of test compound that results in 150% activation of SIRT1): B (EC1.5 10-25 μM) | Emax: < 200%

CC(NC(=O)c1cnccn1)c1cccc(-c2cccc(C(F)(F)F)c2)n1 (stereo not drawn) [Compound 204, N-(1-(6-(3-(trifluoromethyl)phenyl)pyridin-2-yl)ethyl)pyrazine-2-carboxamide]
EC1.5 (concentration of test compound that results in 150% activation of SIRT1): B (EC1.5 10-25 μM) | Emax: > 200%

O=C(NC1CCCc2ccc(-c3cccc(C(F)(F)F)c3)nc21)c1cscn1 (stereo not drawn) [Compound 205]
EC1.5 (concentration of test compound that results in 150% activation of SIRT1): C (EC1.5>25 μM) | Emax: < 200%

O=C(NC1CCCc2ccc(-c3cccc(C(F)(F)F)c3)nc21)c1cnccn1 (stereo not drawn) [Compound 206, N-(2-(3-(trifluoromethyl)phenyl)-5,6,7,8-tetrahydroquinolin-8-yl)pyrazine-2-carboxamide]
EC1.5 (concentration of test compound that results in 150% activation of SIRT1): A (EC1.5<10.0 μM) | Emax: > 200%

CC(NC(=O)c1cnccn1)c1cccc(-c2cccc(OC(F)(F)F)c2)n1 (stereo not drawn) [Compound 207]
EC1.5 (concentration of test compound that results in 150% activation of SIRT1): B (EC1.5 10-25 μM) | Emax: > 200%

CC(C(=O)Nc1cccnc1)c1cccc(-c2cccc(C(F)(F)F)c2)n1 (stereo not drawn) [Compound 210]
EC1.5 (concentration of test compound that results in 150% activation of SIRT1): C (EC1.5>25 μM)

CC(NC(=O)c1cnccn1)c1cccc(-c2ccccc2)n1 (stereo not drawn) [Compound 211]
EC1.5 (concentration of test compound that results in 150% activation of SIRT1): C (EC1.5>25 μM)

CC(NC(=O)c1cccnc1)c1cccc(-c2cccc(C(F)(F)F)c2)n1 (stereo not drawn) [Compound 212]
EC1.5 (concentration of test compound that results in 150% activation of SIRT1): A (EC1.5<10.0 μM) | Emax: > 200%

CC(NC(=O)c1cnccn1)c1cccc(-c2cccnc2)n1 (stereo not drawn) [Compound 213]
EC1.5 (concentration of test compound that results in 150% activation of SIRT1): C (EC1.5>25 μM)

CC(C(=O)Nc1cnccn1)c1cccc(-c2cccc(C(F)(F)F)c2)n1 (stereo not drawn) [Compound 214, N-2-pyrazinyl-2-{6-[3-(trifluoromethyl)phenyl]-2-pyridinyl}propanamide]
EC1.5 (concentration of test compound that results in 150% activation of SIRT1): C (EC1.5>25 μM)

CC(NC(=O)c1ccccc1)c1cccc(-c2cccc(C(F)(F)F)c2)n1 (stereo not drawn) [Compound 215]
EC1.5 (concentration of test compound that results in 150% activation of SIRT1): C (EC1.5>25 μM)

CC(NC(=O)c1cccnc1)c1cccc(-c2cccc(C(F)(F)F)c2)n1 (stereo not drawn) [Compound 216]
EC1.5 (concentration of test compound that results in 150% activation of SIRT1): C (EC1.5>25 μM)

CC(NC(=O)c1ccccc1)c1cccc(-c2ccccc2)n1 (stereo not drawn) [Compound 217]
EC1.5 (concentration of test compound that results in 150% activation of SIRT1): C (EC1.5>25 μM)

CC(NC(=O)c1cccnc1)c1cccc(-c2cccc(OC(F)(F)F)c2)n1 (stereo not drawn) [Compound 218]
EC1.5 (concentration of test compound that results in 150% activation of SIRT1): C (EC1.5>25 μM)

CC(NC(=O)c1cccc(CN2CCCC2)n1)c1cccc(-c2cccc(C(F)(F)F)c2)n1 (stereo not drawn) [Compound 219]
EC1.5 (concentration of test compound that results in 150% activation of SIRT1): C (EC1.5>25 μM)

CC(NC(=O)c1cccc(CN2CCCC2)n1)c1cccc(-c2cccnc2)n1 (stereo not drawn) [Compound 220]
EC1.5 (concentration of test compound that results in 150% activation of SIRT1): C (EC1.5>25 μM)

CC(C(=O)Nc1nccs1)c1cccc(-c2cccc(C(F)(F)F)c2)n1 (stereo not drawn) [Compound 221]
EC1.5 (concentration of test compound that results in 150% activation of SIRT1): C (EC1.5>25 μM)

O=C(NC1CCOc2ccc(-c3cccc(C(F)(F)F)c3)nc21)c1cccc(N2CCOCC2)n1 (stereo not drawn) [Compound 222, 6-morpholino-N-(6-(3-(trifluoromethyl)phenyl)-3,4-dihydro-2H-pyrano[3,2-b]pyridin-4-yl)picolinamide]
EC1.5 (concentration of test compound that results in 150% activation of SIRT1): A (EC1.5<10.0 μM) | Emax: > 200%

O=C(NC1CCOc2ccc(-c3cccc(C(F)(F)F)c3)nc21)c1ccnc(CN2CCOCC2)c1 (stereo not drawn) [Compound 223]
EC1.5 (concentration of test compound that results in 150% activation of SIRT1): C (EC1.5>25 μM)

O=C(NC1CCOc2ccc(-c3cccc(C(F)(F)F)c3)nc21)c1cnccn1 (stereo not drawn) [Compound 224]
EC1.5 (concentration of test compound that results in 150% activation of SIRT1): C (EC1.5>25 μM)

O=C(NC1CCCc2ccc(-c3cccc(C(F)(F)F)c3)nc21)c1ccc(F)c(Cl)c1 (stereo not drawn) [Compound 225]
EC1.5 (concentration of test compound that results in 150% activation of SIRT1): C (EC1.5>25 μM)

O=C(NC1CCCc2ccc(-c3cccc(C(F)(F)F)c3)nc21)c1cccc2c1OC(F)(F)O2 (stereo not drawn) [Compound 226]
EC1.5 (concentration of test compound that results in 150% activation of SIRT1): C (EC1.5>25 μM)

Cc1cc(C(=O)NC2CCCc3ccc(-c4cccc(C(F)(F)F)c4)nc32)n(C)n1 (stereo not drawn) [Compound 227]
EC1.5 (concentration of test compound that results in 150% activation of SIRT1): A (EC1.5<10.0 μM) | Emax: > 200%

O=C(NC1CCCc2ccc(-c3cccc(C(F)(F)F)c3)nc21)c1cc[nH]n1 (stereo not drawn) [Compound 229]
EC1.5 (concentration of test compound that results in 150% activation of SIRT1): B (EC1.5 10-25 μM) | Emax: < 200%

O=C(NC1CCCc2ccc(-c3cccc(C(F)(F)F)c3)nc21)c1ccno1 (stereo not drawn) [Compound 230]
EC1.5 (concentration of test compound that results in 150% activation of SIRT1): C (EC1.5>25 μM)

O=C(NC1CCCc2ccc(-c3cccc(C(F)(F)F)c3)nc21)c1ccccn1 (stereo not drawn) [Compound 231]
EC1.5 (concentration of test compound that results in 150% activation of SIRT1): A (EC1.5<10.0 μM) | Emax: > 200%

O=C(NC1CCCc2ccc(-c3cccc(C(F)(F)F)c3)nc21)c1cccnc1 (stereo not drawn) [Compound 232]
EC1.5 (concentration of test compound that results in 150% activation of SIRT1): C (EC1.5>25 μM) | Emax: < 200%

O=C(NC1CCCc2ccc(-c3cccc(C(F)(F)F)c3)nc21)c1cncnc1 (stereo not drawn) [Compound 233]
EC1.5 (concentration of test compound that results in 150% activation of SIRT1): C (EC1.5>25 μM)

Cc1cnc(C(=O)NC2CCCc3ccc(-c4cccc(C(F)(F)F)c4)nc32)cn1 (stereo not drawn) [Compound 234]
EC1.5 (concentration of test compound that results in 150% activation of SIRT1): A (EC1.5<10.0 μM) | Emax: > 200%

O=C(NC1CCCc2ccc(-c3cccc(C(F)(F)F)c3)nc21)c1cccc(N2CCCC2)n1 (stereo not drawn) [Compound 235]
EC1.5 (concentration of test compound that results in 150% activation of SIRT1): A (EC1.5<10.0 μM) | Emax: < 200%
